From the supplement of paper PMC10307832

Legend:
Test in all cases: relative viability (nuclei count vs DMSO), 5 days (fraction); higher = more cells survive
[1] = compound: Cc1ccc(F)c(NC(=O)Nc2ccc(-c3cccc4[nH]nc(N)c34)cc2)c1 [Linifanib] + C[C@]1(O)C[C@@H](c2nc(-c3ccc4ccc(-c5ccccc5)nc4c3)c3c(N)nccn32)C1 [Linsitinib] (partner 1 µM)
In short: (§1)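 Five library-drug doses in √10 steps were combined with a fixed anchor-drug dose, or a single drug was given alone, by pin tool to lung cancer cell lines in 1536-well plates the day after seeding. Nuclei were stained and counted after 5 days. Relative viability is the nuclei count in treated wells over that in vehicle wells, taken as the median of duplicate plates.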

[2] = compound: Cc1ccc(F)c(NC(=O)Nc2ccc(-c3cccc4[nH]nc(N)c34)cc2)c1 [Linifanib] + CC(=O)c1c(C)c2cnc(Nc3ccc(N4CCNCC4)cn3)nc2n(C2CCCC2)c1=O [Palbociclib] (partner 0.5 µM)
In short: as §1

[3] = compound: Cc1ccc(F)c(NC(=O)Nc2ccc(-c3cccc4[nH]nc(N)c34)cc2)c1 [Linifanib] + CC1(C)CCC(c2ccc(Cl)cc2)=C(CN2CCN(c3ccc(C(=O)NS(=O)(=O)c4ccc(N[C@H](CCN5CCOCC5)CSc5ccccc5)c(S(=O)(=O)C(F)(F)F)c4)cc3)CC2)C1 [Navitoclax] (partner 0.5 µM)
In short: as §1

[4] = compound: Cc1ccc(F)c(NC(=O)Nc2ccc(-c3cccc4[nH]nc(N)c34)cc2)c1 [Linifanib] + COc1cc2c(Oc3ccc(NC(=O)C4(C(=O)Nc5ccc(F)cc5)CC4)cc3F)ccnc2cc1OCCCN1CCOCC1 [Foretinib] (partner 0.25 µM)
In short: as §1

[5] = compound: Cc1ccc(F)c(NC(=O)Nc2ccc(-c3cccc4[nH]nc(N)c34)cc2)c1 [Linifanib] + Nc1nc2[nH]cc(CCc3ccc(C(=O)N[C@@H](CCC(=O)O)C(=O)O)cc3)c2c(=O)[nH]1 [Pemetrexed] (partner 0.2 µM)
In short: as §1

[6] = compound: Cc1ccc(F)c(NC(=O)Nc2ccc(-c3cccc4[nH]nc(N)c34)cc2)c1 [Linifanib] + CS(=O)(=O)N1CCN(Cc2cc3nc(-c4cccc5[nH]ncc45)nc(N4CCOCC4)c3s2)CC1 [Pictilisib] (partner 1 µM)
In short: as §1

EMC-BAC-2
relative viability ([1]; first compound 0.03162 µM): 0.818
relative viability ([1]; first compound 0.1 µM): 0.877
relative viability ([1]; first compound 0.3162 µM): 0.762
relative viability ([2]; first compound 0.03162 µM): 0.542
relative viability ([2]; first compound 0.1 µM): 0.562
relative viability ([2]; first compound 0.3162 µM): 0.531
relative viability ([3]; first compound 0.03162 µM): 1.19
relative viability ([3]; first compound 0.1 µM): 1.17
relative viability ([3]; first compound 0.3162 µM): 1.15
relative viability ([4]; first compound 0.03162 µM): 1.02
relative viability ([4]; first compound 0.1 µM): 1.05
relative viability ([4]; first compound 0.3162 µM): 1.03
relative viability ([5]; first compound 0.03162 µM): 0.456
relative viability ([5]; first compound 0.1 µM): 0.448
relative viability ([5]; first compound 0.3162 µM): 0.472
relative viability ([6]; first compound 0.03162 µM): 0.555
relative viability ([6]; first compound 0.1 µM): 0.59
relative viability ([6]; first compound 0.3162 µM): 0.523

EPLC-272H
relative viability ([1]; first compound 0.03162 µM): 1.04
relative viability ([1]; first compound 0.1 µM): 1.2
relative viability ([1]; first compound 0.3162 µM): 1.15
relative viability ([2]; first compound 0.03162 µM): 0.333
relative viability ([2]; first compound 0.1 µM): 0.338
relative viability ([2]; first compound 0.3162 µM): 0.294
relative viability ([3]; first compound 0.03162 µM): 1.09
relative viability ([3]; first compound 0.1 µM): 1.09
relative viability ([3]; first compound 0.3162 µM): 0.962
relative viability ([4]; first compound 0.03162 µM): 0.643
relative viability ([4]; first compound 0.1 µM): 0.657
relative viability ([4]; first compound 0.3162 µM): 0.556
relative viability ([5]; first compound 0.03162 µM): 0.332
relative viability ([5]; first compound 0.1 µM): 0.358
relative viability ([5]; first compound 0.3162 µM): 0.339
relative viability ([6]; first compound 0.03162 µM): 0.355
relative viability ([6]; first compound 0.1 µM): 0.324
relative viability ([6]; first compound 0.3162 µM): 0.28

H3255
relative viability ([1]; first compound 0.03162 µM): 0.976
relative viability ([1]; first compound 0.1 µM): 1.14
relative viability ([1]; first compound 0.3162 µM): 0.845
relative viability ([2]; first compound 0.03162 µM): 0.358
relative viability ([2]; first compound 0.1 µM): 0.302
relative viability ([2]; first compound 0.3162 µM): 0.312
relative viability ([3]; first compound 0.03162 µM): 0.557
relative viability ([3]; first compound 0.1 µM): 0.642
relative viability ([3]; first compound 0.3162 µM): 0.562
relative viability ([4]; first compound 0.03162 µM): 1
relative viability ([4]; first compound 0.1 µM): 0.946
relative viability ([4]; first compound 0.3162 µM): 0.721
relative viability ([5]; first compound 0.03162 µM): 0.555
relative viability ([5]; first compound 0.1 µM): 0.586
relative viability ([5]; first compound 0.3162 µM): 0.529
relative viability ([6]; first compound 0.03162 µM): 0.509
relative viability ([6]; first compound 0.1 µM): 0.507
relative viability ([6]; first compound 0.3162 µM): 0.488

HARA
relative viability ([1]; first compound 0.03162 µM): 0.991
relative viability ([1]; first compound 0.1 µM): 0.931
relative viability ([1]; first compound 0.3162 µM): 0.939
relative viability ([2]; first compound 0.03162 µM): 0.274
relative viability ([2]; first compound 0.1 µM): 0.244
relative viability ([2]; first compound 0.3162 µM): 0.303
relative viability ([3]; first compound 0.03162 µM): 1.16
relative viability ([3]; first compound 0.1 µM): 1.12
relative viability ([3]; first compound 0.3162 µM): 1.05
relative viability ([4]; first compound 0.03162 µM): 1.09
relative viability ([4]; first compound 0.1 µM): 1.06
relative viability ([4]; first compound 0.3162 µM): 0.835
relative viability ([5]; first compound 0.03162 µM): 0.258
relative viability ([5]; first compound 0.1 µM): 0.261
relative viability ([5]; first compound 0.3162 µM): 0.306
relative viability ([6]; first compound 0.03162 µM): 0.337
relative viability ([6]; first compound 0.1 µM): 0.52
relative viability ([6]; first compound 0.3162 µM): 0.3

HCC-15
relative viability ([1]; first compound 0.03162 µM): 0.881
relative viability ([1]; first compound 0.1 µM): 0.89
relative viability ([1]; first compound 0.3162 µM): 0.817
relative viability ([2]; first compound 0.03162 µM): 0.723
relative viability ([2]; first compound 0.1 µM): 0.741
relative viability ([2]; first compound 0.3162 µM): 0.842
relative viability ([3]; first compound 0.03162 µM): 0.651
relative viability ([3]; first compound 0.1 µM): 0.776
relative viability ([3]; first compound 0.3162 µM): 0.682
relative viability ([4]; first compound 0.03162 µM): 1.01
relative viability ([4]; first compound 0.1 µM): 1.04
relative viability ([4]; first compound 0.3162 µM): 1.09
relative viability ([5]; first compound 0.03162 µM): 0.239
relative viability ([5]; first compound 0.1 µM): 0.229
relative viability ([5]; first compound 0.3162 µM): 0.232
relative viability ([6]; first compound 0.03162 µM): 0.833
relative viability ([6]; first compound 0.1 µM): 0.804
relative viability ([6]; first compound 0.3162 µM): 0.71

HCC-44
relative viability ([1]; first compound 0.03162 µM): 0.741
relative viability ([1]; first compound 0.1 µM): 0.71
relative viability ([1]; first compound 0.3162 µM): 0.664
relative viability ([2]; first compound 0.03162 µM): 0.996
relative viability ([2]; first compound 0.1 µM): 0.955
relative viability ([2]; first compound 0.3162 µM): 1.01
relative viability ([3]; first compound 0.03162 µM): 1.05
relative viability ([3]; first compound 0.1 µM): 0.956
relative viability ([3]; first compound 0.3162 µM): 0.942
relative viability ([5]; first compound 0.03162 µM): 0.624
relative viability ([5]; first compound 0.1 µM): 0.552
relative viability ([5]; first compound 0.3162 µM): 0.613
relative viability ([6]; first compound 0.03162 µM): 0.605
relative viability ([6]; first compound 0.1 µM): 0.674
relative viability ([6]; first compound 0.3162 µM): 0.595

HCC-78
relative viability ([1]; first compound 0.03162 µM): 0.528
relative viability ([1]; first compound 0.1 µM): 0.526
relative viability ([1]; first compound 0.3162 µM): 0.497
relative viability ([2]; first compound 0.03162 µM): 0.513
relative viability ([2]; first compound 0.1 µM): 0.433
relative viability ([2]; first compound 0.3162 µM): 0.447
relative viability ([3]; first compound 0.03162 µM): 0.791
relative viability ([3]; first compound 0.1 µM): 0.74
relative viability ([3]; first compound 0.3162 µM): 0.792
relative viability ([4]; first compound 0.03162 µM): 0.543
relative viability ([4]; first compound 0.1 µM): 0.501
relative viability ([4]; first compound 0.3162 µM): 0.542
relative viability ([5]; first compound 0.03162 µM): 0.944
relative viability ([5]; first compound 0.1 µM): 0.926
relative viability ([5]; first compound 0.3162 µM): 0.85
relative viability ([6]; first compound 0.03162 µM): 0.24
relative viability ([6]; first compound 0.1 µM): 0.21
relative viability ([6]; first compound 0.3162 µM): 0.237

HCC-366
relative viability ([1]; first compound 0.03162 µM): 0.676
relative viability ([1]; first compound 0.1 µM): 0.735
relative viability ([1]; first compound 0.3162 µM): 0.5
relative viability ([2]; first compound 0.03162 µM): 0.398
relative viability ([2]; first compound 0.1 µM): 0.427
relative viability ([2]; first compound 0.3162 µM): 0.373
relative viability ([3]; first compound 0.03162 µM): 1.12
relative viability ([3]; first compound 0.1 µM): 1.11
relative viability ([3]; first compound 0.3162 µM): 0.874
relative viability ([4]; first compound 0.03162 µM): 1.01
relative viability ([4]; first compound 0.1 µM): 0.981
relative viability ([4]; first compound 0.3162 µM): 0.826
relative viability ([5]; first compound 0.03162 µM): 0.159
relative viability ([5]; first compound 0.1 µM): 0.15
relative viability ([5]; first compound 0.3162 µM): 0.139
relative viability ([6]; first compound 0.03162 µM): 0.148
relative viability ([6]; first compound 0.1 µM): 0.21
relative viability ([6]; first compound 0.3162 µM): 0.214
